Reference: ChEMBL document CHEMBL1125580, “Synthesis and in vivo photodynamic activity of some bacteriochlorin derivatives against bladder tumors in rodents” (1991)

The compounds below were run on Rattus norvegicus (assay: Compound was evaluated in vivo for the effective dose of irradiation that causes antitumor activity). Settings: light or radiation study.
Format: functional

SMILES | ED50 [mg/kg]
CCC1=C(CC)c2cc3[nH]c(cc4[nH]c(cc5nc(cc1n2)C(=O)C5(CC)CC)c(CC)c4CC)C1(CC)C3=CCC(C(=O)OC)=C1C(=O)OC.CCC1=C(CC)c2cc3[nH]c(cc4[nH]c(cc5nc(cc1n2)C1=CCC(C(=O)OC)=C(C(=O)OC)C15CC)c(CC)c4CC)C(=O)C3(CC)CC (stereo not drawn) | 1
C=CC1=C(CC)/C2=C/c3[nH]c(c(CC)c3CC)/C=C3N=C(/C=c4\[nH]/c(c(CC)c4CC)=C\C1N2)C(CC)(CC)C\3=O.C=CC1=C(CC)C2/C=c3\[nH]/c(c(CC)c3CC)=C\C3=NC(=C\c4[nH]c(c(CC)c4CC)/C=C/1N2)/C(=O)C3(CC)CC (mixture of isomers) | 2.5
CCC1=C(CC)c2cc3[nH]c(cc4[nH]c(cc5nc(cc1n2)C(=O)C5(CC)CC)c(CC)c4CC)C1(CC)C3=CCC(C#N)(C#N)C1(C#N)C#N.CCC1=C(CC)c2cc3[nH]c(cc4[nH]c(cc5nc(cc1n2)C1=CCC(C#N)(C#N)C(C#N)(C#N)C15CC)c(CC)c4CC)C(=O)C3(CC)CC (mixture of isomers) | 2.5
